In brackets after ≈: the same amount, converted by molar mass.
Assays:
[1] = tested on: P. falciparum D6 (CDC/Sierra Leone); assay: Malaria SYBR Green 1-Based Fluorescence (MSF) Assay, strain D6; type: cell-based; conditions: Plasmodium falciparum, D6, read-out: D6 IC50
Description: Compound activity against P. falciparum, the causative agent of malaria, was assessed using the Malaria SYBR Green 1-Based Fluorescence (MSF) Assay. This microtiter plate drug sensitivity assay uses the presence of malarial DNA as a measure of parasitic proliferation. The assay is a microtiter plate drug sensitivity assay that uses the presence of malarial DNA as a measure of parasitic proliferation in the presence of antimalarial drugs or experimental compounds based on modifications of previously described methods (Plouffe et al., Proc Natl Acad Sci USA. 2008, 105, 9059-9064), (Johnson et al., Antimicrob. Agents Chemother. 2005, 49, 3463-3467).
Selected compounds were examined for activity against two strains of P. falciparum: D6 (CDC/Sierra Leone), a drug-sensitive and readily killed by chloroquine, and TM90-C235, a multi-drug resistant strain resistant to chloroquine.
D6 (CDC/Sierra Leone) and TM90-C235 (WRAIR, Thailand) laboratory strains of P. falciparum were used for each drug sensitivity assessment. The parasite strains were maintained continuously in long-term cultures as previously described in Johnson et al, and P. falciparum strains in late-ring or early-trophozoite stages were cultured in predosed 384-well microtiter drug assay plates in 38 μl culture volume per well at a starting parasitemia of 0.3% and a hematocrit of 2%. Pre-dosed, sterile, 384 well black optical bottom microtiter drug plates for use in the MSF assay were produced using a Tecan EVO Freedom Liquid Handling System (Tecan US, Durham, N.C.). Dose response plates were produced at a final concentration ranging from 0.5-10000 ng/ml in quadruplicate (twelve two-fold serial dilutions of each test compound or chloroquine control in DMSO. Each run was validated by a batch control plate with chloroquine (Sigma-Aldrich Co., Catalog #C6628) at a final concentration of 2000 ng/ml. The cultures were incubated for 72 hours at 37° C., 5% CO2, 5% O2 and 90% N2. Lysis buffer (38 μl per well), consisting of 20 mM Tris HCl, 5 mM EDTA, 1.6% Triton X, 0.016% saponin, and SYBR green I dye at a 20× concentration (Invitrogen, Catalog #S-7567) was then added to the assay plates utilizing the Tecan EVO Freedom system for a final SYBR Green concentration of 10×. Plates were incubated in the dark at room temperature in the dark for 24 hours.
Compound activity was assessed by examining for the relative fluorescence units (RFU) per well using the Tecan Genios Plus (Tecan US, Inc., Durham, N.C.). GraphPad Prism (GraphPad Software Inc., San Diego, Calif.) using the nonlinear regression (sigmoidal dose-response/variable slope) equation was used to determine IC50 values.

[2] = tested on: T. gondii tachyzoites; assay: In vitro inhibition of T. gondii tachyzoites (RH-YFP fluorescence / [3H]-uracil incorporation); type: cell-based; conditions: for MIC50 / MIC90: Toxoplasma gondii, T. gondii tachyzoites in HFF cells; for activity against T. gondii tachyzoites, in words: only MIC50≦1 μM considered active
Description: Determination of the anti-apicomplexan activity of Compounds of Formula I may be determined by one skilled in the art. Parasite proliferation was monitored by using stably transfected type I RH-YFP parasites, which constitutively express Yellow Florescent Protein. Proliferation also was tested using a [^3H]-Uracil incorporation assay, as Uracil is incorporated into nucleic acids of T. gondii tachyzoites, but not mammalian cells, as they divide. Complimentary challenge assays ensured that the observed fluorescence data was due to parasite inhibition and not to quenched fluorescence. Pyrimethamine and sulfadiazine were used as positive controls, and DMSO at a concentration of 0.1% was used as the negative control. Because T. gondii is an obligate parasite, compounds that are toxic to host cells will appear to inhibit parasite growth. Therefore, all test compounds were simultaneously evaluated for efficacy and toxicity against human cells.
Test compounds were dissolved in DMSO to make a 10 mM solution, and subsequently diluted with IMDM-C to the concentrations used in bioassay. In the in vitro experiments DMSO concentration was not greater than 0.1% unless otherwise specified. RH-YFP parasites, which stably express Yellow Florescent Protein, were used. Tachyzoites were extracted from HFF cells by double passage through a 25-gauge needle, centrifuged for 15 minutes at 1500 RPM, and resuspended in IMDM-C. Confluent monolayers of HFF cells were infected with parasites in 96-well plates (Falcon 96 Optilux Flat-bottom) with 3,500 parasites in 100 uL per well. One hour after inoculation, test compounds and control media were added for a final volume of 200 uL per well. Parasite proliferation was assessed using [^3H]-Uracil incorporation or YFP Fluorescence assay.
Human Foreskin Fibroblast (HFF) cells were maintained in confluent monolayers in Iscoves's Modified Dulbecco's Medium supplemented with 10% fetal bovine serum, 1% GlutaMAX and 1% penicillin-streptomycin-fungizone (IMDM-C). T. gondii tachyzoites were cultivated in HFF monolayers. Parasites and cells were maintained at 33° C. or 37° C. and 5% CO2. The strains of parasite used in this study include RH, RH-YFP, and Prugnaud FLUC (Type 2 parasites stably transfected with luciferase), Me49 strain, and TgGoatUS4 isolate.
25 μL of 0.1 mCi/mL*^3H]-Uracil or [^3H]-Thymidine was added to each well 24 hours before reading plates. At harvesting, contents of the wells were transferred onto a 96-well UniFilter GF/C filter plates using a Filtermate 196 cell harvester (Packard). [^3H]-Uracil and [^3H]-Thymidine incorporation was measured using a Microplate Scintillation Luminescence Counter (Packard).
72 hours after initiation of the in vitro challenge assay, parasite proliferation was assessed by reading fluorescence of YFP parasites with a Synergy H4 Hybrid Reader (BioTek) and Gen5 1.10 software, using a bottom optics positions, excitation wavelength of 514 nm, and emission wavelength of 540 nm.

[3] = Hydrolytic stability of acylated derivatives (data not shown); type: physicochemical
Description: A cursory study of the effect of capping the phenol of 4 via acylation was undertaken. The acylated derivatives 7 were prepared and tested. […] The intrinsic activity of intact 7a cannot yet be ruled out, and this interesting phenomenon is currently under study.

Compound	IC50 [1] [ng/mL]	MIC50 [2] [µM]	MIC90 [2] [µM]	activity against T. gondii tachyzoites, in words [2]	stability against hydrolysis [3]
CCN(CC)CCCC(C)Nc1ccnc2cc(Cl)ccc12 (stereo not drawn) [Chloroquine, reference compound]	3.8 (≈ 0.0119 µM)				
Cc1cccc(NC(=O)c2cc(Cl)ccc2O)c1 [Compound 3a]		> 1	> 1		
O=C(Nc1cccc(Cl)c1)c1cc(I)cc(I)c1O [Compound 3aa]		> 1	> 1	no activity	
O=C(Nc1ccc2c(c1)OCCO2)c1cc(Cl)ccc1O [Compound 3ab]		> 1	> 1	devoid of activity	
CCOc1cccc(NC(=O)c2cc(F)ccc2O)c1 [Compound 3ac]		> 1	> 1	no activity	
C#Cc1cccc(NC(=O)c2cc(Cl)ccc2O)c1 [Compound 3d]		> 1	> 1		
N#Cc1cccc(NC(=O)c2cc(Cl)ccc2O)c1 [Compound 3g]		> 1	> 1		
O=C(Nc1ccc([N+](=O)[O-])cc1Cl)c1ccccc1O [Compound 3k]		> 1	> 1	eliminated activity altogether	
O=C(Nc1cc(F)cc(F)c1)c1cc(Cl)ccc1O [Compound 3o]		> 1	> 1	inactive	
O=C(Nc1ccc(Cl)cc1F)c1cc(Cl)ccc1O [Compound 3p, 5-chloro-N-(4-chloro-2-fluorophenyl)-2-hydroxybenzamide]				removed all activity	
COc1ccc(NC(=O)c2cc(Cl)ccc2O)c(OC)c1OC [Compound 3q]		> 1	> 1	devoid of activity	
Cc1cc(C)cc(NC(=O)c2cc(Cl)ccc2O)c1 [Compound 3s]		> 1	> 1		
C#Cc1cc(NC(=O)c2cc(Cl)ccc2O)ccc1F [Compound 3t]		> 1	> 1	inactive	
CCOc1cccc(NC(=O)c2cc(Cl)ccc2O)c1 [Compound 3u]		> 1	> 1		
COc1ccc(NC(=O)c2cc(Cl)ccc2O)cc1OC [Compound 3v]		> 1	> 1	devoid of activity	
CC(C)Oc1cccc(NC(=O)c2cc(Cl)ccc2O)c1 [Compound 3w]		> 1	> 1		
COc1cc(C)cc(NC(=O)c2cc(Cl)ccc2O)c1 [Compound 3x]		> 1	> 1		
O=C(Nc1cccc(Oc2ccccc2)c1)c1cc(Cl)ccc1O [Compound 3y]		> 1	> 1		
O=C(Nc1cccc(OC(F)F)c1)c1cc(Cl)ccc1O [Compound 3z]		> 1	> 1		
Nc1ccc(NC(=O)c2cc(Cl)ccc2O)c(Cl)c1 [Compound 5]		> 1	> 1	all activity was lost	
COC(=O)[C@@H]1CCCC1C(=O)Oc1ccc(Cl)cc1C(=O)Nc1ccc([N+](=O)[O-])cc1Cl (stereo partly drawn) [Compound 7b]		> 1	> 1	devoid of activity	much more stable against hydrolysis
O=C(Nc1ccc([N+](=O)[O-])cc1Cl)c1cc(Cl)ccc1OC(=O)N1CCOCC1 [Compound 7c]		> 1	> 1	devoid of activity	much more stable against hydrolysis
CN1CCN(C(=O)Oc2ccc(Cl)cc2C(=O)Nc2ccc([N+](=O)[O-])cc2Cl)CC1 [Compound 7d, 4-chloro-2-((2-chloro-4-nitrophenyl)carbamoyl)phenyl 4-methylpiperazine-1-carboxylate]				devoid of activity	much more stable against hydrolysis
Cc1cccc(NC(=O)c2cc(F)ccc2O)c1 [Compound 10a]		> 1	> 1	inactive	
COc1cccc(NC(=O)c2cc(F)ccc2O)c1 [Compound 10b]		> 1	> 1	inactive	
